The text below walks through data of patent publication US12258424B2, “Polypeptides and compositions comprising the same” (priority 2020, dated 2025).

In one experiment the test system is DU145 cancer cell. Format: cell-based, human. As for the experimental part: (§1) Ninety-six-well plates were coated with 100 ng of PD-L1 protein (G&P Biosciences, human PD-L1 ECD, cat #FCL0784B. mouse PD-L1, cat #FCL3502B) and later blocked with 2% BSA for 2 hours at room temperature. Various concentrations of peptides were loaded into the wells and incubated for 1 hour at room temperature. […] Streptavidin-HRP (R & D systems) and chromogenic substrate were added into the wells. OD450 was then recorded and referenced to OD540.
The blocking efficiency of the anti-PD-L1 peptides at 10 μM (FIG. 2c). […] The IC50 of each peptide was also determined using recombinant human PD-L1 protein and DU-145 cancer cells.

For the next experiment, the system named is 4T1 cancer cell. Type of experiment: cell-based, mouse.
For experiment [1], the system named is Jurkat T cells co-cultured with DU-145 cancer cells. Put plainly: Jurkat T cell proliferation in co-culture with DU-145 cells (CellTiter-Glo). Type of experiment: cell-based, human. The note with it: peptide 5 μM, 24 hours. As for the experimental part: (§2) Proliferation and Apoptosis Assays. […] Briefly, 3×10^4 Jurkat T cells were cultured alone or co-cultured with 1.5×10^5 DU-145 cancer cells in a 24-well plate for the proliferation assay. For the apoptosis assay, 6×10^4 Jurkat T cells were cultured alone or co-cultured with 3×10^5 DU-145 cancer cells in a 6-well plate. After incubation with the anti-PD-L1 peptides (5 μM) or anti-PD-L1 antibody (1 μM) for 24 hours, Jurkat T cells were harvested from the supernatant. Proliferation of Jurkat cells was determined using the CellTiter-Glo luminescent cell viability assay (Promega, WI), and apoptosis of the cells were determined using the Dead Cell Apoptosis Kit with Annexin V Alexa Fluor® 488 and Propidium Iodide (Thermo-Fisher Scientific, Pittsburgh, PA) as we described before^21.
Background: In ATP-based viability assays light output follows the ATP content of the culture.

Experiment [2] shares this test system. Kind of experiment: Jurkat T cell apoptosis in co-culture with DU-145 cells (Annexin V/PI). Format: cell-based, human. The note with it: co-culture with DU-145 (15.1% untreated); peptide 5 μM or antibody 1 μM, 24 hours. As for the experimental part:
as §2

For experiment [3], the system named is 3D tumor spheroids of MDA-MB-231 cells. Put plainly: 3D tumor spheroid penetration assay. Type of experiment: cell-based, human. The note with it: Cy5-labeled, 2 and 6 hours. The method, then: 3D Tumor Spheroid Penetration Assay. 3D spheroids of MDA-MB-231 cells were generated using the Spheroid Formation Extracellular Matrix (ECM) as per the company's protocol (Amsbio, Cambridge, MA). Briefly, 3,000 tumor cells were mixed with 50 μL Spheroid Formation ECM and loaded into a Corning™ 96-well Ultra-low Attachment Treated Spheroid Microplate (Corning, Pittsburgh, PA). The plate was centrifuged at 200 g for 3 min at 4° C. The cells were then incubated at 37° C. until the diameter reached approximately 700 μm. The Cy5-labeled CLP002 peptide and anti-PD-L1 antibody were incubated with the spheroids for 2 or 6 hours. After washing, penetration of the peptide and antibody inside the tumor spheroids was determined using confocal microscopy.

Experiment [4] has as its system CT26 colorectal tumor-bearing mouse model. Put plainly: Anti-tumor activity in CT26 tumor-bearing Balb/C mice. Format: in vivo. From the text: (§3) Animal Study. The animal protocol was approved by the University of Missouri-Kansas City, Institutional Animal Care and Use Committee (IACUC). Five-week old male and female Balb/c mice were purchased from Charles Rivers Laboratories (Wilmington, Mass.) and housed in a temperature and humidity controlled room on a 12-hour light-dark cycle. Approximately 5×10^5 CT26 cells were subcutaneously injected into the right flank. The mice were randomly divided into five different groups (10 mice/group, 50% female, 50% male). The mice were intraperitoneally injected with 2 mg/kg peptide daily when the tumor size reached 50-100 mm^3. The anti-mouse PD-L1 antibody (10F.9G2, BioXcell) was administrated as a positive control at a dose of 10 mg/kg every two days. The tumor size was assessed with a caliper and calculated with the formula 0.5×length×width^2. ELISA kits of PD-L1 (Cat #DY1019-05), IFNγ (Cat #DY485-05), and IL-6 (Cat #DY406-05) were used to measure the expressions of PD-L1, IFNγ, and IL-6, respectively, in tumors as per the company's instructions (R & D Systems, Minneapolis, MN).
The anti-mouse PD-L1 antibody (BioXcell, 10F.9G2) was administered intraperitoneally every other day at 10 mg/kg. […] In general, CLP002 (SEQ ID NO:2) exerted a better tumor inhibitory effect than CLP003 (SEQ ID NO:3), which was similar to the antibody. […] In FIG. 6e the weight of the tumors harvested at day 14 is shown. The results were represented as the mean±SD (n=10). It is noteworthy that the peptides were screened against the human PD-L1 protein, which, in fact, would compromise the anti-tumor activity of the peptides in a mouse model.

The test system of experiment [5] is IFNγ, PD-L1 and IL-6 in CT26 tumors. Kind of experiment: ELISA of IFNγ, PD-L1 and IL-6 in harvested CT26 tumors. Type of experiment: in vivo, mouse.
Description: as §3
(In general: In an ELISA, binding on a coated surface is turned into a signal by an enzyme label.)

Experiment [6] relates to CT26 tumor-bearing Balb/C mice. Put plainly: Survival of CT26 tumor-bearing Balb/C mice. Type of experiment: in vivo, mouse.
Description: as §3
In this Example, mice were intraperitoneally injected with the CLP002 (SEQ ID NO:2) and CLP003 (SEQ ID NO:3) peptides daily or the anti-mouse PD-L1 antibody every other day from day 4 to day 17 (see survival curves in FIG. 7a). Specifically, CT26 tumor-bearing Balb/C mice (n=10, 5 male and 5 female) were intraperitoneally injected with the anti-PD-L1 peptides (2 mg/Kg) daily and the anti-mouse PD-L1 antibody (10 mg/Kg) every other day from day 4 to day 17. GraphPad Prism 7 software (San Diego, Calif.) was used for statistical analysis. Comparison of two survival curves were conducted using the Gehan-Breslow-Wilcoxon test. […] By contrast, only 20% of the mice in the CLP002 (SEQ ID NO:2) group were dead by day 17.

The target in a further experiment is hPD-L1 (Homo sapiens, UniProt Q9NZQ7). Kind of experiment: Blockade of the PD-1/PD-L1 interaction, plate coated with human PD-L1 protein. Type of experiment: binding. Further details: PD-L1 protein (G&P Biosciences, human PD-L1 ECD, cat #FCL0784B); purchased G&P Biosciences FCL0784B (PD-L1). The method, then:
as §1

Residues, ends and D or L forms follow the SMILES beside them.

hPD-L1, sequence (Q9NZQ7 19-238 limits assumed): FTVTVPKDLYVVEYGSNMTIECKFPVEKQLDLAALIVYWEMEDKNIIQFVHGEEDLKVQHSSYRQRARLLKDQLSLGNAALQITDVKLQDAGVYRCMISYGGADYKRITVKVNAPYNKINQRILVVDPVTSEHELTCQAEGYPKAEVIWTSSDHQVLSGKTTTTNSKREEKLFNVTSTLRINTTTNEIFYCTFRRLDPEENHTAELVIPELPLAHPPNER

As usually defined, the IC50 is the concentration that inhibits the measured activity by half. Read a high IC50 as a need for much substance. For the compound `CC(C)C[C@H](NC(=O)[C@H](CC(N)=O)NC(=O)[C@H](Cc1c[nH]c2ccccc12)NC(=O)[C@@H](NC(=O)[C@H](Cc1ccc(O)cc1)NC(=O)[C@H](Cc1ccc(O)cc1)NC(=O)[C@H](CO)NC(=O)[C@H](CCCNC(=N)N)NC(=O)[C@H](Cc1c[nH]cn1)NC(=O)[C@@H](N)Cc1c[nH]c2ccccc12)[C@@H](C)O)C(=O)N[C@@H](CC(N)=O)C(=O)N[C@H](C(=O)O)[C@@H](C)O` [CLP002] (H-WHRSYYTWNLNT-OH; N-terminus and C-terminus assumed), the IC50 is 1430 nM in the experiment with DU145 cancer cell (2 h), 2440 nM in the experiment on 4T1 cancer cell (2 h) and 2170 nM against hPD-L1 (plate coated with human PD-L1 protein). Further, the “Blocking Efficiency (%)” value in the experiment on DU145 cancer cell (DU-145 cancer cells) was 80%; in the experiment with 4T1 cancer cell (4T1 cancer cell) it was 61%; at hPD-L1 (human PD-L1 protein), 85%. Moreover, the “Effect on Jurkat T cell proliferation” value in experiment [1] is reported as “restored Jurkat T cell proliferation”. For the same compound, the “Apoptosis of Jurkat cells” value in [2] is reported as 10.2%. Also, the “Tumor spheroid penetration (in words)” value in [3] (confocal microscopy) is reported as “better tumor penetration than the antibody”. Also, in [3] (spheroids ~700 μm), the “Depth of penetration from the periphery of the spheroids” value is “approximately 250 μm”. Also, the Tumor growth entry in experiment [4] (peptides 2 mg/kg i.p. daily, antibody 10 mg/kg i.p. every other day) is listed as “effectively suppressed tumor growth”. Besides, in experiment [4] (versus saline group), the “Tumor weights at day 14” value was “significantly smaller than the saline group”. For the same compound, the “IL-6 expression in tumor tissues” value in experiment [5] is “decreased expression of IL-6”. Besides, the “Tumor growth in the survival study” value in [6] (Example 7, individual growth curves) was “inhibited tumor growth”. Besides, in experiment [6] (n=10), the “Mice showing a response to treatment (in words)” value is reported as “Eight mice showed a response”. Moreover, the “Mice dead by day 17” value in [6] (n=10, saline group 90%) is on record as 20%. Further, the “Survival of tumor-bearing mice” value in experiment [6] (treatment from day 4 to day 17) was “improved the survival”. Moreover, at hPD-L1 (peptides at 10 μM, FIG. 2c), the “Blocking of the human PD-1/PD-L1 interaction (in words)” value was “highest blocking efficiency”.
